28 molecules from ChEMBL document CHEMBL2203203, “Structure-activity relationships of 2-arylamido-5,7-dihydro-4H-thieno[2,3-c]pyran-3-carboxamide derivatives as cannabinoid receptor agonists and their analgesic action” (Bioorg Med Chem Lett, 2012) can be followed below.

Test [1] has as its target T1, Cannabinoid receptor 1 (Homo sapiens, UniProt P21554). In words: Agonist activity at human CB1 receptor after 4 hrs by luciferase reporter gene assay relative to control. In kind it is functional. Background: Reporter assays use an easily measured gene product as a stand-in for the process of interest.
Test [2] has as its target T2, Cannabinoid receptor 2 (Homo sapiens, UniProt P34972). In words: Agonist activity at human CB2 receptor after 4 hrs by luciferase reporter gene assay relative to control. It is filed as functional.
Test [3] addresses T2, Cannabinoid receptor 2. In words: Agonist activity at human CB2 receptor after 4 hrs by luciferase reporter gene assay. In kind it is functional.
For another test, the species on record is Homo sapiens. In words: Selectivity ratio of EC50 for human CB1 receptor to EC50 for human CB2 receptor.
In test [4] the target is T1, Cannabinoid receptor 1. In words: Agonist activity at human CB1 receptor after 4 hrs by luciferase reporter gene assay. In kind it is functional.

pEC50: −log10 of the molar value. Some results are limits rather than exact numbers.

T1 sequence (P21554 whole entry): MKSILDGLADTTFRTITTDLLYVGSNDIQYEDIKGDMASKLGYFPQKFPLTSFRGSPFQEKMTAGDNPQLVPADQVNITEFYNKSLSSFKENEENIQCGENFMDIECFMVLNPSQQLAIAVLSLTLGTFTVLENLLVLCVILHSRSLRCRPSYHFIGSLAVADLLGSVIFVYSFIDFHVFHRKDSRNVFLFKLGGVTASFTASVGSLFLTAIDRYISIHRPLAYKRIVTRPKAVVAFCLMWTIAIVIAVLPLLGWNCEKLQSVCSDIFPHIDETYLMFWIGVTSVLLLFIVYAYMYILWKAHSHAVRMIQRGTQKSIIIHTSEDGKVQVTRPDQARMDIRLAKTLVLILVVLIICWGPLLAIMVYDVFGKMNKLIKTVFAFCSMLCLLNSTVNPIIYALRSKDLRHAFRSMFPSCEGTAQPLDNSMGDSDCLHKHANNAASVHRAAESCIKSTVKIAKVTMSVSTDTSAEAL
T2 sequence (P34972 whole entry): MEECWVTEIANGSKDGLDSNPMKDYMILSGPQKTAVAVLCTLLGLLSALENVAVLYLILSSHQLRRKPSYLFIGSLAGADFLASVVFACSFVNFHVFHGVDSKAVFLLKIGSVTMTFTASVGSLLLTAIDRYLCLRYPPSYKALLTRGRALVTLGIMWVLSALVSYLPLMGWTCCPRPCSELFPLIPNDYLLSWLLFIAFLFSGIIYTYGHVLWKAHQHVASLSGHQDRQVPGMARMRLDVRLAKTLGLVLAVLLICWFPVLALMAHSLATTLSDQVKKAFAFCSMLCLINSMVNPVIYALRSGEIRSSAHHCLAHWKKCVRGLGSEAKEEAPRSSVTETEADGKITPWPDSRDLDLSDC

In general, pEC50 refers to −log10 of the EC50, conventionally taken in molar units. Read a low pEC50 as a high EC50. Take `COCCNC(=O)c1c(NC(=O)c2ccccc2Cl)sc2c1CCC(F)(F)C2`: the Efficacy stood at 97% at Cannabinoid receptor 1 [1] and 105% at Cannabinoid receptor 2 [2]. The pEC50 at Cannabinoid receptor 2 [3] was 7.34; on Cannabinoid receptor 1 [4] it was 6.02. In addition, the Ratio EC50 in the test listed under Homo sapiens was found to be 21.

For `COC1CN(C(=O)c2c(NC(=O)c3ccccc3OC(F)(F)F)sc3c2CCOC3)C1`, the Efficacy on Cannabinoid receptor 1 [1] was 45%; on Cannabinoid receptor 2 [2], 100%. Further, the results for the negative logarithm of the EC50 (pEC50) on Cannabinoid receptor 2 [3] and on Cannabinoid receptor 1 [4] were 7.42 and 5.85, respectively. In the test filed under Homo sapiens, the Ratio EC50 stood at 37.

Take `O=C(Nc1sc2c(c1C(=O)N1CCOCC1)CCOC2)c1c(F)cccc1C(F)(F)F`: the Efficacy on Cannabinoid receptor 1 [1] was 56%; on Cannabinoid receptor 2 [2], 100%. Besides, the pEC50 is 7.02 on Cannabinoid receptor 2 [3] and 5.34 at Cannabinoid receptor 1 [4]. Moreover, the Ratio EC50 in the test filed under Homo sapiens turned out to be 48.

On to `COC1CN(C(=O)c2c(NC(=O)CC(C)(C)C)sc3c2CCCC3)C1`, for which the results for the Efficacy at Cannabinoid receptor 1 [1] and at Cannabinoid receptor 2 [2] were 63% and 110%, respectively. Besides, the pEC50 was 7.33 at Cannabinoid receptor 2 [3] and 5.40 on Cannabinoid receptor 1 [4]. Besides, the Ratio EC50 in the test listed under Homo sapiens came out at 85.

As to `CC(C)(C)CC(=O)Nc1sc2c(c1C(=O)NCC1CC1)C(C)(C)CC2`, the Efficacy stood at 96% at Cannabinoid receptor 1 [1] and 101% on Cannabinoid receptor 2 [2]. In addition, the pEC50 at Cannabinoid receptor 2 [3] was 8.19; on Cannabinoid receptor 1 [4] it was 6.61. Further, in the test listed under Homo sapiens, the Ratio EC50 amounted to 38.

With `O=C(Nc1sc2c(c1C(=O)NCC1CC1)CCOC2)c1ccccc1OC(F)(F)F`, the Efficacy on Cannabinoid receptor 1 [1] was found to be 88%; on Cannabinoid receptor 2 [2], 94%. Besides, the pEC50 at Cannabinoid receptor 2 [3] was 7.46; at Cannabinoid receptor 1 [4], 6.28. Moreover, in the test listed under Homo sapiens, the Ratio EC50 is 15.

On to `O=C(Nc1sc2c(c1C(=O)N1CC(F)(F)C1)CCC(F)(F)C2)c1ccccc1OC(F)(F)F`, for which the figures for the Efficacy on Cannabinoid receptor 1 [1] and at Cannabinoid receptor 2 [2] were 93% and 99%, respectively. The pEC50 on Cannabinoid receptor 2 [3] is 7.74; at Cannabinoid receptor 1 [4], 6.86. Moreover, the Ratio EC50 in the test filed under Homo sapiens is 8.

Turning to `O=C(Nc1sc2c(c1C(=O)N1CCOCC1)CCOC2)c1ccccc1Cl`, the results for the Efficacy at Cannabinoid receptor 1 [1] and on Cannabinoid receptor 2 [2] were 85% and 112%, respectively. Besides, the pEC50 is 6.64 on Cannabinoid receptor 2 [3] and 5.49 at Cannabinoid receptor 1 [4]. For the same molecule, the Ratio EC50 in the test filed under Homo sapiens was 14.

Regarding `O=C(CN1CCCCC1)Nc1sc2c(c1C(=O)N1CCC(F)(F)CC1)CCCC2`, the Efficacy on Cannabinoid receptor 1 [1] turned out to be 100%; on Cannabinoid receptor 2 [2] it was 104%. Also, the pEC50 was 7.59 on Cannabinoid receptor 2 [3] and 5.49 at Cannabinoid receptor 1 [4]. Moreover, the Ratio EC50 in the test listed under Homo sapiens was 126.

Turning to `O=C(Nc1sc2c(c1C(=O)NCC1CC1)CCOC2)c1c(F)cccc1C(F)(F)F`, the Efficacy on Cannabinoid receptor 1 [1] was 90%; at Cannabinoid receptor 2 [2], 112%. In addition, the negative-log EC50 (pEC50) at Cannabinoid receptor 2 [3] was 7.96; on Cannabinoid receptor 1 [4], 6.09. Besides, the Ratio EC50 in the test filed under Homo sapiens came to 74.

For `COCCNC(=O)c1c(NC(=O)CC(C)(C)C)sc2c1CCCC2`, the Efficacy at Cannabinoid receptor 1 [1] is 90%; on Cannabinoid receptor 2 [2], 94%. Besides, the negative logarithm of the EC50 (pEC50) at Cannabinoid receptor 2 [3] was 7.64; on Cannabinoid receptor 1 [4], 5.72. In addition, the Ratio EC50 in the test filed under Homo sapiens stood at 84.

In the case of `O=C(Nc1sc2c(c1C(=O)N1CCOCC1)CCOC2)c1ccccc1C(F)(F)F`, the results for the Efficacy on Cannabinoid receptor 1 [1] and at Cannabinoid receptor 2 [2] were 84% and 102%, respectively. The pEC50 is 7.46 on Cannabinoid receptor 2 [3] and 5.76 at Cannabinoid receptor 1 [4]. Further, in the test listed under Homo sapiens, the Ratio EC50 was found to be 50.

With `O=C(Nc1sc2c(c1C(=O)N1CCC(F)(F)CC1)CCOC2)c1ccccc1OC(F)(F)F`, the Efficacy at Cannabinoid receptor 1 [1] is 79%; at Cannabinoid receptor 2 [2], 96%. For the same molecule, the pEC50 was 8.48 at Cannabinoid receptor 2 [3] and 6.90 on Cannabinoid receptor 1 [4]. Moreover, the Ratio EC50 in the test filed under Homo sapiens turned out to be 38.

In turn, `COCCNC(=O)c1c(NC(=O)C2CCCN2C(=O)C2CC2)sc2c1CCCC2` (stereo unspecified) displayed an Efficacy at Cannabinoid receptor 2 [2] of 88%. Further, the pEC50 at Cannabinoid receptor 2 [3] was 6.46; at Cannabinoid receptor 1 [4], less than 5.00. Besides, in the test listed under Homo sapiens, the Ratio EC50 is greater than 29.

For `CC1(C)CCc2sc(NC(=O)c3ccccc3Cl)c(C(=O)NCC3CC3)c21`, the figures for the Efficacy at Cannabinoid receptor 1 [1] and on Cannabinoid receptor 2 [2] were 86% and 116%, respectively. The results for the pEC50 at Cannabinoid receptor 2 [3] and on Cannabinoid receptor 1 [4] were 9.26 and 7.80, respectively. The Ratio EC50 in the test listed under Homo sapiens amounted to 30.

`COCCNC(=O)c1c(NC(=O)CN2CCCCC2)sc2c1CCCC2` had an Efficacy on Cannabinoid receptor 2 [2] of 98%. In addition, the results for the negative logarithm of the EC50 (pEC50) at Cannabinoid receptor 2 [3] and on Cannabinoid receptor 1 [4] were 6.82 and less than 5.00, respectively. The Ratio EC50 in the test filed under Homo sapiens was greater than 65.

At Cannabinoid receptor 2 [2], `O=C(Nc1sc2c(c1C(=O)N1CCOCC1)CCOC2)c1ccccc1OC(F)(F)F` displayed an Efficacy of 106%. For the same molecule, the pEC50 at Cannabinoid receptor 2 [3] was 6.99; on Cannabinoid receptor 1 [4], less than 5.00. The Ratio EC50 in the test listed under Homo sapiens is greater than 90.

In the case of `CC(C)c1ccccc1C(=O)Nc1sc2c(c1C(=O)N1CCOCC1)CCOC2`, the results for the Efficacy on Cannabinoid receptor 1 [1] and on Cannabinoid receptor 2 [2] were 105% and 101%, respectively. Moreover, the pEC50 at Cannabinoid receptor 2 [3] was 7.46; on Cannabinoid receptor 1 [4] it was 5.82. Moreover, the Ratio EC50 in the test listed under Homo sapiens turned out to be 42.

As for `O=C(Nc1sc2c(c1C(=O)N1CC(F)(F)C1)CCC(F)(F)C2)c1ccccc1Cl`, the Efficacy at Cannabinoid receptor 1 [1] turned out to be 95%; on Cannabinoid receptor 2 [2], 98%. The pEC50 at Cannabinoid receptor 2 [3] is 7.31; on Cannabinoid receptor 1 [4] it was 7.09. Besides, the Ratio EC50 in the test listed under Homo sapiens is 2.

As for `COCCNC(=O)c1c(NC(=O)CC(C)(C)C)sc2c1C(C)(C)CC2`, the Efficacy on Cannabinoid receptor 1 [1] is 98%; at Cannabinoid receptor 2 [2], 100%. The pEC50 at Cannabinoid receptor 2 [3] was 8.23; on Cannabinoid receptor 1 [4], 6.43. Further, the Ratio EC50 in the test filed under Homo sapiens worked out at 62.

The molecule `CC(C)(C)C(=O)c1c(NC(=O)c2ccccc2OC(F)(F)F)sc2c1CCOC2` returned an Efficacy at Cannabinoid receptor 2 [2] of 102%. Besides, the pEC50 on Cannabinoid receptor 2 [3] is 6.03; at Cannabinoid receptor 1 [4], less than 5.00. Moreover, the Ratio EC50 in the test listed under Homo sapiens is greater than 11.

Take `COC1CN(C(=O)c2c(NC(=O)c3c(F)cccc3C(F)(F)F)sc3c2CCOC3)C1`: the Efficacy on Cannabinoid receptor 1 [1] is 55%; at Cannabinoid receptor 2 [2], 100%. In addition, the pEC50 at Cannabinoid receptor 2 [3] was 7.62; at Cannabinoid receptor 1 [4] it was 5.18. In the test filed under Homo sapiens, the Ratio EC50 was found to be 275.

As to `COCCNC(=O)c1c(NC(=O)c2ccccc2OC(F)(F)F)sc2c1CCOC2`, at Cannabinoid receptor 2 [2], the Efficacy was 100%. The results for the pEC50 on Cannabinoid receptor 2 [3] and at Cannabinoid receptor 1 [4] were 7.02 and less than 5.00, respectively. The Ratio EC50 in the test listed under Homo sapiens is greater than 104.

Turning to `CC(C)(C)CC(=O)Nc1sc2c(c1C(=O)N1CC(F)(F)C1)CCCC2`, the Efficacy on Cannabinoid receptor 1 [1] was found to be 91%; on Cannabinoid receptor 2 [2] it was 99%. Moreover, the negative logarithm of the EC50 (pEC50) was 8.27 at Cannabinoid receptor 2 [3] and 6.47 at Cannabinoid receptor 1 [4]. Moreover, the Ratio EC50 in the test listed under Homo sapiens stood at 63.

Consider `COCC(C)(C)NC(=O)c1c(NC(=O)c2c(F)cccc2C(F)(F)F)sc2c1CCOC2`, for which the Efficacy at Cannabinoid receptor 2 [2] was 94%. Besides, the pEC50 on Cannabinoid receptor 2 [3] is 7.13; on Cannabinoid receptor 1 [4], less than 5.00. Further, the Ratio EC50 in the test listed under Homo sapiens is greater than 135.

In turn, `COCCNC(=O)c1c(NC(=O)CC(C)(C)C)sc2c1CCOC2` showed an Efficacy at Cannabinoid receptor 2 [2] of 101%. Moreover, the pEC50 on Cannabinoid receptor 2 [3] is 6.31; at Cannabinoid receptor 1 [4] it was less than 5.00. In addition, the Ratio EC50 in the test listed under Homo sapiens was greater than 20.

On Cannabinoid receptor 2 [2], `COCCNC(=O)c1c(NC(=O)C2CCC2)sc2c1CCCC2` yielded an Efficacy of 101%. Further, the pEC50 at Cannabinoid receptor 2 [3] is 6.70; at Cannabinoid receptor 1 [4] it was less than 5.00. For the same molecule, the Ratio EC50 in the test listed under Homo sapiens was greater than 49.

With `O=C(Nc1sc2c(c1C(=O)N1CCOCC1)CCOC2)c1ccccc1OC(F)F`, at Cannabinoid receptor 2 [2], the Efficacy was found to be 96%. For the same molecule, the results for the pEC50 on Cannabinoid receptor 2 [3] and at Cannabinoid receptor 1 [4] were 6.31 and less than 5.00, respectively. Moreover, the Ratio EC50 in the test listed under Homo sapiens was greater than 20.
